According to PubChem BioAssay (NCI):
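Compound exposure: 48 hours, 5 concentrations, 96-well plates. TGI: concentration producing complete growth inhibition.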

Experiments:
Assay in all cases: inhibition of tumour cell growth, NCI panel, 48 h
[1] = tested on: NCI/ADR-RES ovarian
[2] = tested on: HCC-2998 colon
[3] = tested on: CCRF-CEM leukemia
[4] = tested on: K-562 leukemia
[5] = tested on: NCI-H522 lung
[6] = tested on: MDA-MB-231 breast
[7] = tested on: SK-MEL-28 melanoma
[8] = tested on: MDA-MB-435
[9] = tested on: HT29 colon
[10] = tested on: MALME-3M melanoma

C=CCNC(=O)CN(CC(=O)O)C1CCCCC1N(CC(=O)O)CC(=O)O (stereo not given)
TGI [1]: > 100 µM
TGI [2]: > 100 µM
TGI [3]: > 100 µM
TGI [4]: > 100 µM
TGI [5]: > 100 µM
TGI [6]: > 100 µM
TGI [7]: > 100 µM
TGI [8]: > 100 µM
TGI [9]: > 100 µM
TGI [10]: > 100 µM

Nc1c(Cl)cc(-c2nc3ccccc3s2)cc1Cl
TGI [1]: > 100 µM
TGI [2]: > 100 µM
TGI [3]: > 100 µM
TGI [4]: > 100 µM
TGI [5]: > 100 µM
TGI [6]: > 100 µM
TGI [7]: > 100 µM
TGI [8]: > 100 µM
TGI [9]: > 100 µM
TGI [10]: > 100 µM

O=c1[nH]c(=O)n(C2C(CO)OC(CO)C2O)cc1F (stereo not given)
TGI [1]: > 100 µM
TGI [2]: > 100 µM
TGI [3]: > 100 µM
TGI [4]: > 100 µM
TGI [5]: > 100 µM
TGI [6]: > 100 µM
TGI [7]: > 100 µM
TGI [8]: > 100 µM
TGI [9]: > 100 µM
TGI [10]: > 100 µM

O=c1cc(CNC2CC3CCC2C3)[nH]c(=O)[nH]1 (stereo not given)
TGI [1]: > 100 µM
TGI [2]: > 100 µM
TGI [3]: > 100 µM
TGI [4]: > 100 µM
TGI [5]: > 100 µM
TGI [6]: > 100 µM
TGI [7]: > 100 µM
TGI [8]: > 100 µM
TGI [9]: > 100 µM
TGI [10]: > 100 µM

COC(=O)[C@@]1(NC(=O)C(CC(=O)OC(C)(C)C)NC(=O)OC(C)(C)C)C[C@H]1C (stereo not given in full)
TGI [1]: > 100 µM
TGI [2]: > 100 µM
TGI [3]: > 100 µM
TGI [4]: > 100 µM
TGI [5]: > 100 µM
TGI [6]: > 100 µM
TGI [7]: > 100 µM
TGI [8]: > 100 µM
TGI [9]: > 100 µM
TGI [10]: > 100 µM

c1cncc(CSc2ncnc3nc[nH]c23)c1
TGI [1]: > 100 µM
TGI [2]: > 100 µM
TGI [3]: > 100 µM
TGI [4]: > 100 µM
TGI [5]: > 100 µM
TGI [6]: > 100 µM
TGI [7]: > 100 µM
TGI [8]: > 100 µM
TGI [9]: > 100 µM
TGI [10]: > 100 µM

CCCC(=O)OCOC(=O)N(C)N=Nc1ccc(C(=O)OCC)cc1
TGI [1]: > 100 µM
TGI [2]: 45.9 µM
TGI [3]: > 100 µM
TGI [4]: > 100 µM
TGI [5]: 38 µM
TGI [6]: > 100 µM
TGI [7]: > 100 µM
TGI [8]: > 100 µM
TGI [9]: 41.6 µM
TGI [10]: 43.3 µM

O=C(NCCCCCCCN1CCCCCCC1)C(C1CCCCC1)C1CCCCC1
TGI [1]: 25.1 µM
TGI [2]: 7.59 µM
TGI [3]: 46.9 µM
TGI [4]: 11.4 µM
TGI [5]: 30.9 µM
TGI [6]: 20.8 µM
TGI [7]: 16.3 µM
TGI [8]: 22.2 µM
TGI [9]: 11.7 µM
TGI [10]: 8.53 µM

CCOP(=O)(OCC)C(Cc1ccc(Cl)cc1)NS(=O)(=O)c1ccc(C)cc1 (stereo not given)
TGI [1]: > 100 µM
TGI [2]: > 100 µM
TGI [3]: > 100 µM
TGI [4]: > 100 µM
TGI [5]: > 100 µM
TGI [6]: > 100 µM
TGI [7]: > 100 µM
TGI [8]: > 100 µM
TGI [9]: > 100 µM
TGI [10]: > 100 µM

O=[N+]([O-])C(=C/c1cccc2ccccc12)/C(=C\c1cccc2ccccc12)[N+](=O)[O-]
TGI [1]: 5.79 µM
TGI [2]: 5.41 µM
TGI [3]: 4.77 µM
TGI [4]: > 25.9 µM
TGI [5]: 3.63 µM
TGI [6]: 5.14 µM
TGI [7]: 4.05 µM
TGI [8]: 6.12 µM
TGI [9]: 5.13 µM
TGI [10]: 5.49 µM

CC(C)CCC[C@@H](C)[C@H]1CC[C@H]2C3=C[C@H](OS(=O)(=O)O)[C@@]4(O)C[C@@H](O)CC[C@]4(C)[C@@]3(O)CC[C@]12C
TGI [1]: > 100 µM
TGI [2]: > 100 µM
TGI [3]: > 100 µM
TGI [4]: > 100 µM
TGI [5]: > 100 µM
TGI [6]: > 100 µM
TGI [7]: > 100 µM
TGI [8]: > 100 µM
TGI [9]: > 100 µM
TGI [10]: > 100 µM

O=C1CSC(c2ccccc2O)N1c1ccc(Oc2ccc(Cl)cc2)c(Cl)c1 (stereo not given)
TGI [1]: 48.4 µM
TGI [2]: 40.4 µM
TGI [3]: 65.1 µM
TGI [4]: > 100 µM
TGI [5]: 36.8 µM
TGI [6]: 34.3 µM
TGI [7]: 57.4 µM
TGI [8]: 69 µM
TGI [9]: 37.3 µM
TGI [10]: 30.2 µM

COC1=C2CC(C)CC(OC)C(OC(=O)CCCN)C(C)/C=C(\C)C(OC(N)=O)C(OC)/C=C\C=C(/C)C(=O)NC(=CC1=O)C2=O (stereo not given)
TGI [1]: 43.7 µM
TGI [2]: 19.4 µM
TGI [3]: 3.59 µM
TGI [4]: 19.4 µM
TGI [5]: 1.96 µM
TGI [6]: 36.1 µM
TGI [7]: 23.7 µM
TGI [8]: 12.4 µM
TGI [9]: 13.2 µM
TGI [10]: 14.9 µM

O=C1C=C(C2=C(C3=CC(=O)c4ccccc4C3=O)C(=O)c3ccccc3C2=O)C(=O)c2ccccc21
TGI [1]: 36.4 µM
TGI [2]: 43.1 µM
TGI [3]: 1.43 µM
TGI [4]: > 39.5 µM
TGI [5]: 7.17 µM
TGI [6]: 13.8 µM
TGI [7]: 29.8 µM
TGI [8]: 6.28 µM
TGI [9]: 12.5 µM
TGI [10]: 4.82 µM

CCOC(=O)/C=C\C(C#N)(C#N)N=Cc1ccsc1
TGI [1]: 15.3 µM
TGI [2]: 32.3 µM
TGI [3]: 1.02 µM
TGI [4]: 14.3 µM
TGI [5]: 2.83 µM
TGI [6]: 30.9 µM
TGI [7]: 6.89 µM
TGI [8]: 6.63 µM
TGI [9]: 28.1 µM
TGI [10]: 5.35 µM
